According to US12378204B2, “Triazole compounds and preparation method therefor and use thereof” (WUHAN LL SCIENCE AND TECHNOLOGY DEVELOPMENT CO., LTD., priority 2019, dated 2025):

Key:
Assay type in all cases: cell-based
[1] = target: T1, hLPAR1 (human lysophosphatidic acid receptor 1) (Homo sapiens, UniProt Q92633); assay: FLIPR intracellular calcium assay, hLPAR1 expressed in CHO-K1 cells; conditions: antagonism of 1 μM LPA-induced calcium increase, CHO-K1 cells expressing hLPAR1; read-out: LPAR1 IC50
T1 construct: expressed in transfected cells
T1 sequence (Q92633 whole entry): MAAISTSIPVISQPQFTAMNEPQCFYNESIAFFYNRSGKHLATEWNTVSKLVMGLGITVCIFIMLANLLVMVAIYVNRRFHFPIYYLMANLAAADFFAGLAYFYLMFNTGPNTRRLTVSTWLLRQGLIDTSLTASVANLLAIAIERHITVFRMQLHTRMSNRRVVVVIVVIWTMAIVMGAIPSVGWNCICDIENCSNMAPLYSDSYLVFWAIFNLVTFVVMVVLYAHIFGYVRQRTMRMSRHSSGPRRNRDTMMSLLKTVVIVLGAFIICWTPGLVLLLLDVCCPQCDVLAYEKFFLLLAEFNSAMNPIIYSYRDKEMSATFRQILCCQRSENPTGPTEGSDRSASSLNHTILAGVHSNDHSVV
Protocol: The antagonist property of the compounds disclosed herein was determined using the FLIPR (fluorescence imaging plate reader) method, wherein the compounds are inhibitors for the intracellular calcium increase induced by activation of hLPAR1 (human lysophosphatidic acid receptor 1, accession No. NM_001401.4) expressed in CHO-K1 cells (Chinese hamster ovary cells K1, ATCC).
CHO-K1 cells stably expressing hLPAR1 were cultured in F-12 medium containing 10% FBS (fetal bovine serum, Gibco, 10099-141), 1% penicillin-streptomycin (Gibco, 15140-122) and 0.4 mg/mL hygromycin B (Gibco, 10687010) in a cell incubator (37° C., […]). During 18-24 h prior to the FLIPR experiment, cells at 250,000 cells/mL were seeded into a 96-well plate (25,000 cells/well) and incubated overnight in the cell incubator. On the day of the experiment, the medium was discarded and the cells were washed in a FLIPR buffer (0.3 mL of probenecid (Thermo, P36400), 0.6 mL of 1 M HEPES (Invitrogen, 15630080) and 29.1 mL of HBSS (Invitrogen, 14065056) per 30 mL of buffer). Each well was added with 75 μL of 1 mM Fluo-4 AM fluorescent dye (Thermo, F14202) and then the cells were subjected to dye-loading incubation at 37° C. for 1.0 h. The 96-well plate was then washed once with buffer, added with a buffer containing a test compound or vehicle at 50 μL per well and then incubated for 30 min at room temperature. The cell plate was then placed in the FLIPR for baseline fluorescence measurements (excitation at 485 nm and emission at 525-535 nm). An agonist (oleoyl-L-α-lysophosphatidic acid sodium salt (Sigma, L7260) at a final concentration of 1 μM) or a vehicle (ultrapure water) was then added at 50 μL/well, fluorescence values were measured for 2 min at 1-second intervals, and finally the output fluorescence counts were analyzed.

[2] = system: A2058 (human melanoma cells); assay: A2058 cell scratch assay (cell migration inhibition); conditions: A2058 scratch area 0 h vs 24 h, 10 μM LPA, read-out: Cell migration inhibition rate
Protocol: The activity of the compounds disclosed herein at the cell level in vitro is evaluated by A2058 (human melanoma cells, Beina Bio, BNCC341099) cell scratch assay. The inhibitory activity of the compounds against LPAR1 can be reflected by inhibition of cell scratch healing.
A2058 cells in a T75 cm^2 cell culture flask were digested and gently pipetted into single cells, adjusted to a cell density of 4×10^5 cells/mL, and then seeded into a 24-well plate. After the cell confluence reached 80%, the cell culture plate was taken out and the original medium was discarded. Serum-free medium was then added, and the cells were starved overnight in an incubator (37° C., 5% CO2). The cell culture plate was then taken out, and cell scratches were made along the diameter of the wells using a 200 μL pipette tip. The cell culture plate was then added with 500 μL of serum-free medium and then shaken gently to wash away the residual cells on the scratched surface, and this was repeated twice. The medium was discarded and 500 μL of 1% FBS medium containing the compound was then added, and the mixture was incubated at 37° C. for 30 min. […] Olympus CKX53 was used to observe the scratches, and MShot image analysis system was used to take pictures and measure the scratch area at 0 h. Then the cell culture plate was incubated in the incubator (37° C., 5% CO2). 24 h later, the scratches were observed again with Olympus CKX53, and MShot image analysis system was used to take pictures and measure the scratch area at 24 h. Cell migration inhibition rate was calculated according to the following formula: […]

[3] = In vitro cytotoxicity assay in HepG2 cells, CCK-8 method; conditions: human, 48 h incubation
Protocol: In vitro cytotoxicity assay for the compounds disclosed herein was performed in HepG2 cells using the CCK-8 method. HepG2 cells (Beina Bio) in the logarithmic growth phase were collected, the concentration of cell suspension was adjusted, and then the cells were plated on a 96-well cell culture plate at 50,000 cells/well. • The cells were then incubated overnight in a cell incubator (5% CO2, 37° C.), and after 80-90% cell confluence was achieved, test compounds or vehicle (DMSO) at various concentration gradients were added after medium change. The resulting mixture was incubated in the cell incubator (5% CO2, 37° C.) for 48 h. After the treatment, the medium in the plate was discarded. The plate was washed twice with PBS, added with CCK-8 working solution (Beyotime) at 100 μL per well, and then incubated at 37° C. for 1.5 h in the dark. Absorbance at OD450nm was measured for each well on a microplate reader, and CC50 value of each compound was analyzed and calculated.

| Compound | IC50 [1] | inhibition [2] | CC50 at 48 h [3] |
| --- | --- | --- | --- |
| CN(Cc1ccccc1)C(=O)NCc1c(-c2ccc(O[C@H]3CCC[C@H](C(=O)O)C3)cc2)nnn1C (racemic) [Compound 1] | 50 to 300 nM | 30 to 50% | > 200000 nM |
| Cn1nnc(-c2ccc(O[C@H]3CCC[C@H](C(=O)O)C3)cc2)c1CNC(=O)/C=C/c1ccccc1 (racemic) [Compound 5] | 300 to 10000 nM | 0 to 30% | > 200000 nM |
| CN(Cc1ccccc1)C(=O)OCc1cn(-c2ccc(O[C@H]3CCC[C@H](C(=O)O)C3)cc2)nn1 (racemic) [Compound 6, (+/−)-(1S,3S)-3-(4-(4-(((benzyl(methyl)carbamoyl)oxo)methyl)-1H-1,2,3-triazol-1-yl)phenoxy)cyclohexane-1-carboxylic acid] | 50 to 300 nM | 30 to 50% | > 200000 nM |
| CN(Cc1ccccc1)C(=O)OCc1c(-c2ccc(O[C@H]3CCC[C@H](C(=O)O)C3)o2)nnn1C (racemic) [Compound 12] | 300 to 10000 nM | 0 to 30% | > 200000 nM |
| Cc1ncc(-c2c(-c3ccc(O[C@H]4CCC[C@H](C(=O)O)C4)cc3)nnn2C)o1 (racemic) [Compound 15, (+/−)-(1S,3S)-3-(4-(1-methyl-5-(2-methyloxazol-5-yl)-1H-1,2,3-triazol-4-yl)phenoxy) cyclohexane-1-carboxylic acid] | 300 to 10000 nM | 30 to 50% | > 200000 nM |
| Cn1nnc(-c2ccc(O[C@H]3CCC[C@H](C(=O)O)C3)cc2)c1Cn1ccn(Cc2ccccc2)c1=O (racemic) [Compound 16, (+/−)-(1S,3S)-3-(4-(5-((3-benzyl-2-carbonyl-2,3-dihydro-1H-imidazol-1-yl)methyl)-1-methyl-1H-1,2,3-triazol-4-yl)phenoxy)cyclohexane-1-carboxylic acid] | 300 to 10000 nM | 30 to 50% | > 200000 nM |
| Cn1nnc(-c2ccc(O[C@H]3CCC[C@H](C(=O)O)C3)cc2)c1CN1CCN(Cc2ccccc2)C1=O (racemic) [Compound 17, (+/−)-(1S,3S)-3-(4-(5-((3-benzyl-2-carbonylimidazolidin-1-yl)methyl)-1-methyl-1H-1,2,3-triazol-4-yl)phenoxy)cyclohexane-1-carboxylic acid] | 50 to 300 nM | 0 to 30% | > 200000 nM |
| Cn1nnc(-c2ccc(O[C@H]3CCC[C@H](C(=O)O)C3)cc2)c1CNS(=O)(=O)c1ccccc1 (racemic) [Compound 18, (+/−)-(1S,3S)-3-(4-(1-methyl-5-(benzenesulfonamidomethyl)-1H-1,2,3-triazol-4-yl)phenoxy)cyclohexane-1-carboxylic acid] | 50 to 300 nM | 30 to 50% | > 200000 nM |
| CN(C(=O)Cc1c(-c2ccc(O[C@H]3CCC[C@H](C(=O)O)C3)cc2)nnn1C)C1CCCC1 (racemic) [Compound 19] | 50 to 300 nM | 0 to 30% | > 200000 nM |
| Cn1nnc(-c2ccc(O[C@H]3CCC[C@H](C(=O)O)C3)cc2)c1CNC(=O)C1CCCC1 (racemic) [Compound 20, (+/−)-(1S,3S)-3-(4-(5-(cyclopentanecarboxamido<oxalylamino>methyl)-1-methyl-1H-1,2,3-triazol-4-yl)phenoxy)cyclohexane-1-carboxylate] | 50 to 300 nM | 30 to 50% | > 200000 nM |
| Cn1nnc(-c2ccc(O[C@H]3CCC[C@H](C(=O)O)C3)cc2)c1COC1CCCC1 (racemic) [Compound 21, (+/−)-(1S,3S)-3-(4-(5-((cyclopentyloxy)methyl)-1-methyl-1H-1,2,3-triazol-4-yl)phenoxy)cyclohexane-1-carboxylic acid] | 50 to 300 nM | 30 to 50% | > 200000 nM |
| CC(C)OCc1c(-c2ccc(O[C@H]3CCC[C@H](C(=O)O)C3)cc2)nnn1C (racemic) [Compound 22, (+/−)-(1S,3S)-3-(4-(5-(isopropoxymethyl)-1-methyl-1H-1,2,3-triazol-4-yl)phenoxy)cyclohexane-1-carboxylic acid] | 50 to 300 nM | 30 to 50% | > 200000 nM |
| Cn1nnc(-c2ccc(O[C@H]3CCC[C@H](C(=O)O)C3)cc2)c1COCc1ccccc1 (racemic) [Compound 23, (+/−)-(1S,3S)-3-(4-(5-((benzyloxy)methyl)-1-methyl-1H-1,2,3-triazol-4-yl)phenoxy)cyclohexane-1-carboxylic acid] | 50 to 300 nM | 30 to 50% | > 200000 nM |
| Cn1nnc(-c2ccc(O[C@H]3CCC[C@H](C(=O)O)C3)cc2)c1NCc1ccccc1 (racemic) [Compound 24, (+/−)-(1S,3S)-3-(4-(5-(benzylamino)-1-methyl-1H-1,2,3-triazol-4-yl)phenoxy) cyclohexane-1-carboxylate] | 300 to 10000 nM | 0 to 30% | > 200000 nM |
| CN(C(=O)CCc1nnn(C)c1-c1ccc(O[C@H]2CCC[C@H](C(=O)O)C2)c(C(F)(F)F)n1)C1CCCC1 (racemic) [Compound 27-B, (+/−)-(1S,3S)-3-((6-(4-(3-(cyclopentyl(methyl)amino)-3-carbonylpropyl)-1-methyl-1H-1,2,3-triazol-5-yl)-2-(trifluoromethyl)pyridin-3-yl)oxo)cyclohexane-1-carboxylic acid] | 300 to 10000 nM | 0 to 30% | > 200000 nM |
| Cn1nnc(-c2ccc(O[C@H]3CCC[C@H](C(=O)O)C3)c(C(F)(F)F)n2)c1CNC(=O)OC1CCCC1 (racemic) [Compound 28, (+/−)-(1S,3S)-3-((6-(5-((((cyclopentyloxy)carbonyl)amino)methyl)-1-methyl-1H-1,2,3-triazol-4-yl)-2-(trifluoromethyl)pyridin-3-yl)oxo)cyclohexane-1-carboxylic acid] | 50 to 300 nM | 50 to 70% | > 200000 nM |

Now from value to compound, other results behind:

| IC50 [1] | Compound | inhibition [2] | CC50 at 48 h [3] |
| --- | --- | --- | --- |
| 300 to 10000 nM | CN(Cc1ccccc1)C(=O)OCc1c(C2CC2O[C@H]2CCC[C@H](C(=O)O)C2)nnn1C (mixture of isomers) [Compound 32] |  |  |
| 300 to 10000 nM | Cn1nnc(-c2ccc(O[C@H]3CCC[C@H](C(=O)O)C3)cc2)c1CS(=O)(=O)NC1CCCC1 (racemic) [Compound 33] |  |  |
| 300 to 10000 nM | Cc1nnn(-c2ccc(O[C@H]3CCC[C@H](C(=O)O)C3)cc2)c1N(C)C(=O)OC1CCCC1 (racemic) [Compound 34] |  |  |
| 300 to 10000 nM | Cn1nnc(-c2ccc(O[C@H]3CCC[C@H](C(=O)O)C3)cc2)c1NCC1CCCC1 (racemic) [Compound 36] |  |  |
| 300 to 10000 nM | Cn1nnc(-c2ccc(O[C@H]3CCC[C@H](C(=O)O)C3)cc2)c1NC(=O)Cc1ccccc1 (racemic) [Compound 37] |  |  |
| 300 to 10000 nM | Cn1nnc(-c2ccc(O[C@H]3CCC[C@H](C(=O)O)C3)cc2)c1CNc1ncc(C2CCCC2)o1 (racemic) [Compound 38] |  |  |
| ≤ 50 nM | Cn1nnc(C#CO[C@H]2CCC[C@H](C(=O)O)C2)c1COc1nccc(C2CC2)n1 (racemic) [Compound 39] |  |  |
| 300 to 10000 nM | CN(C(=O)OCc1c(-c2ccc(O[C@H]3CCC[C@H](C(=O)O)C3)cc2)nnn1C1CC1)C1CCCC1 [Compound 35] |  |  |
